The values below come from ChEMBL document CHEMBL1201862, “PubChem BioAssay data set” (2004).

Among the test systems are A549; CCRF-CEM; HCT-116; HL-60; HT-29; IGROV-1; NCI-H522; OVCAR-4; SK-MEL-28; SN12C; SNB-75; U-251; OVCAR-5; SK-MEL-5.
Holding throughout (experiment): NCI anticancer screen, dose series, 48 h

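Following 48 hours of exposure in 96-well plates, responses at five concentrations were used to interpolate endpoints linearly. GI50 = concentration required for 50% inhibition of growth.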 The source made the active and inactive calls. Cut-off read from the data, not from the text of the source: active = GI50 up to about 1.1 µM and inactive = higher.

For the compound `O=S(=O)(/C=C/C(=C/c1ccccc1)S(=O)(=O)c1ccccc1)c1ccccc1`, the GI50 in the assay on A549 was 2.13 µM (inactive); in the assay on CCRF-CEM, 0.778 µM (active); with HCT-116 it was 1.72 µM (inactive); in the assay on HL-60, 0.543 µM (active); in the assay with HT-29, 1.73 µM (inactive); with IGROV-1, 4.06 µM (inactive). The GI50 with NCI-H522 is 1.45 µM (inactive); in the assay with OVCAR-4, 1.67 µM (inactive); in the assay on SK-MEL-28 it was 1.49 µM (inactive); in the assay on SN12C, 1.7 µM (inactive); in the assay on SNB-75, 1.87 µM (inactive); in the assay on U-251, 1.83 µM (inactive).
On to `COC(=O)c1cccc2cccc(C(=O)Nc3ccc(Cl)cc3)c12`, for which the GI50 in the assay on A549 is > 78.2 µM (inactive); with CCRF-CEM, 2.26 µM (inactive); in the assay on HCT-116, > 35.1 µM (inactive); with HL-60, 0.706 µM (active); in the assay on NCI-H522, 13.7 µM (inactive); in the assay on OVCAR-4 it was > 100 µM (inactive). Further, the GI50 was > 86.9 µM (inactive) in the assay with OVCAR-5; > 100 µM (inactive) in the assay with SK-MEL-28; 0.336 µM (active) with SK-MEL-5; > 100 µM (inactive) with SN12C; > 100 µM (inactive) in the assay on SNB-75; 39.7 µM (inactive) with U-251.
On to `CC1OC(n2cc(Cl)c(=O)[nH]c2=O)C=C(OC(=O)c2ccccc2)C1=O` (stereo not given), for which the GI50 in the assay with A549, in the assay on CCRF-CEM, with HL-60, in the assay with HT-29, in the assay with IGROV-1 and in the assay on OVCAR-4 was > 100 µM (inactive) each time. The GI50 with SK-MEL-28, in the assay on SK-MEL-5, in the assay on SN12C, with SNB-75 and in the assay on U-251 was > 100 µM (inactive) in each case.
In the case of `C=C(c1ccccc1N)[C@@]1(O)C[C@H](/C(=C\C)CO)C[C@@H]1NCc1ccccc1`, the GI50 with A549 was 37 µM (inactive); in the assay with CCRF-CEM it was 21.2 µM (inactive); in the assay on HCT-116, 15.3 µM (inactive); in the assay on HL-60, 13.3 µM (inactive); in the assay with HT-29, 17.5 µM (inactive); with IGROV-1 it was 31.9 µM (inactive). The GI50 with NCI-H522 is 17.1 µM (inactive); with OVCAR-4, 26.7 µM (inactive); with SK-MEL-28, 18.3 µM (inactive); in the assay on SK-MEL-5 it was 17.1 µM (inactive); with SN12C it was 32 µM (inactive); in the assay with SNB-75, 10.8 µM (inactive). Moreover, in the assay with U-251, the GI50 was 17.2 µM (inactive).
As for `c1ccc2c(c1)c1ccccc1c1n[se]nc21`, the GI50 is 52.6 µM (inactive) with A549; > 100 µM (inactive) in the assay with CCRF-CEM; > 100 µM (inactive) with HL-60; 57 µM (inactive) with HT-29; 36.1 µM (inactive) in the assay with IGROV-1; > 100 µM (inactive) in the assay on NCI-H522. Also, the GI50 was > 100 µM (inactive) with OVCAR-4; 35.6 µM (inactive) in the assay on OVCAR-5; > 100 µM (inactive) with SK-MEL-28; > 100 µM (inactive) in the assay on SK-MEL-5; > 100 µM (inactive) in the assay with SN12C; 28.1 µM (inactive) with SNB-75. Besides, the GI50 in the assay with U-251 was > 100 µM (inactive).
Regarding `S=P(c1ccccc1)(c1ccccc1)C1(C2(P(=S)(c3ccccc3)c3ccccc3)CC2)CC1`, the GI50 in the assay with A549, in the assay on CCRF-CEM, in the assay on HCT-116, with HT-29, with IGROV-1 and with NCI-H522 was > 100 µM (inactive) in each case. Moreover, the GI50 in the assay with OVCAR-4, in the assay on OVCAR-5, in the assay with SK-MEL-28, in the assay on SK-MEL-5, with SN12C and in the assay on SNB-75 was > 100 µM (inactive) each time. Further, in the assay with U-251, the GI50 is > 100 µM (inactive).
As to `Cc1cc(NS(=O)(=O)c2ccc(Nc3c4ccccc4nc4c(C(=O)Nc5ccc(S(N)(=O)=O)cc5)cccc34)cc2)no1`, the GI50 in the assay on A549 is > 100 µM (inactive); in the assay on CCRF-CEM, 26.5 µM (inactive); in the assay with HCT-116 it was 31.2 µM (inactive); in the assay on HT-29 it was > 100 µM (inactive); with IGROV-1 it was 70.1 µM (inactive); in the assay on NCI-H522, 24.2 µM (inactive). Also, the GI50 in the assay with OVCAR-4 was 23.4 µM (inactive); in the assay with OVCAR-5 it was > 100 µM (inactive); with SK-MEL-28 it was 28.9 µM (inactive); in the assay on SK-MEL-5 it was 63.1 µM (inactive); in the assay with SN12C, 36.2 µM (inactive); in the assay with SNB-75, 72.8 µM (inactive). For the same compound, the GI50 with U-251 is 24.8 µM (inactive).
Turning to `O=C(CSc1nc(-c2ccccc2)c(-c2ccccc2)[nH]1)N/N=C/c1ccc(O)cc1`, the GI50 in the assay on A549 is 24.2 µM (inactive); in the assay on CCRF-CEM, 23.3 µM (inactive); with HCT-116, 22.5 µM (inactive); with HL-60 it was 20 µM (inactive); in the assay with HT-29, 18.9 µM (inactive); with IGROV-1 it was 26.4 µM (inactive). Also, the GI50 is 20.2 µM (inactive) in the assay on NCI-H522; 32.1 µM (inactive) in the assay with SK-MEL-28; 26.4 µM (inactive) in the assay with SN12C; 19.7 µM (inactive) with SNB-75; 20.3 µM (inactive) with U-251.
With `COC(=O)/C1=C/C2CC(/C=C(/c3ccccc3)C(=O)O1)C2`, the GI50 was 29.9 µM (inactive) with A549; 19.5 µM (inactive) with CCRF-CEM; 21.8 µM (inactive) in the assay on HCT-116; 22.5 µM (inactive) with HL-60; 26.9 µM (inactive) in the assay with HT-29; 42.4 µM (inactive) with IGROV-1. Also, the GI50 with NCI-H522 was 16.7 µM (inactive); in the assay with SK-MEL-28, 23.8 µM (inactive); in the assay on SK-MEL-5 it was 17.7 µM (inactive); with SN12C, 24.4 µM (inactive); in the assay with SNB-75, 5.93 µM (inactive); in the assay with U-251, 19.7 µM (inactive).
Regarding `NS(=O)(=O)c1cc2c(cc1Cl)NC(/C(=N/NC(=O)c1ccncc1)C1C(=O)NC(=O)NC1=O)=NS2(=O)=O`, the GI50 in the assay with A549 is > 100 µM (inactive); in the assay on CCRF-CEM, > 100 µM (inactive); in the assay with HCT-116, 55.8 µM (inactive); in the assay on HL-60, > 100 µM (inactive); in the assay on IGROV-1, > 100 µM (inactive); in the assay with OVCAR-4, > 100 µM (inactive). The GI50 in the assay on OVCAR-5, in the assay with SK-MEL-5 and in the assay with U-251 was > 100 µM (inactive) each time.
Turning to `N#CC(c1ccc(Cl)cc1)c1cccc(C(C#N)c2ccc(Cl)cc2)n1` (stereo not given), the GI50 in the assay on A549 is 10.6 µM (inactive); with CCRF-CEM, 25.9 µM (inactive); in the assay on HL-60 it was 12.1 µM (inactive); with HT-29, 19.1 µM (inactive); in the assay on NCI-H522 it was 17.6 µM (inactive); in the assay with OVCAR-4 it was 32.6 µM (inactive). Further, the GI50 was > 100 µM (inactive) with OVCAR-5; 17 µM (inactive) in the assay with SK-MEL-28; 59.3 µM (inactive) with SN12C; 15.9 µM (inactive) in the assay with SNB-75; 18.1 µM (inactive) in the assay with U-251.
`COc1ccc(C=O)c(N(C)C(=O)C(C)(C)C)c1`: the GI50 in the assay on A549, in the assay with CCRF-CEM, with HCT-116, in the assay on HL-60, in the assay with HT-29 and in the assay on IGROV-1 was > 100 µM (inactive) in each case. For the same compound, the GI50 with NCI-H522, in the assay on OVCAR-4, in the assay with SK-MEL-28, in the assay with SK-MEL-5, in the assay with SN12C and with SNB-75 was > 100 µM (inactive) each time. Also, the GI50 in the assay on U-251 is > 100 µM (inactive).
As to `CC(/C=C1\CCC(CN(C)C)C1=O)c1cccc(Br)c1` (stereo not given), the GI50 was 31.3 µM (inactive) in the assay with A549; 2.52 µM (inactive) in the assay with CCRF-CEM; 8.59 µM (inactive) in the assay with HCT-116; 3.06 µM (inactive) in the assay on HL-60; 15.1 µM (inactive) in the assay with HT-29; 13.8 µM (inactive) in the assay on IGROV-1. In addition, the GI50 with NCI-H522 was 8.05 µM (inactive); with OVCAR-4, 17 µM (inactive); with OVCAR-5, 22.8 µM (inactive); with SK-MEL-28 it was 17 µM (inactive); in the assay on SK-MEL-5 it was 13.8 µM (inactive); in the assay on SN12C, 22 µM (inactive). In addition, the GI50 in the assay with U-251 is 18.2 µM (inactive).
`Cc1cc(NS(=O)(=O)c2ccc(NC(=O)c3cccc4c(N)c5ccccc5nc34)cc2)no1`: the GI50 was > 100 µM (inactive) with A549; 21.4 µM (inactive) in the assay with CCRF-CEM; 14.5 µM (inactive) with HCT-116; 27.9 µM (inactive) with HT-29; 27.5 µM (inactive) in the assay on IGROV-1; 17 µM (inactive) in the assay with NCI-H522. For the same compound, the GI50 is 27.3 µM (inactive) with OVCAR-4; 28.8 µM (inactive) in the assay on OVCAR-5; 22.1 µM (inactive) with SK-MEL-28; > 10 µM (inactive) in the assay with SK-MEL-5; 19.2 µM (inactive) in the assay on SN12C; 68.7 µM (inactive) with SNB-75. Also, in the assay on U-251, the GI50 is 26.6 µM (inactive).
Turning to `COc1nc(=O)cc(N)n1C1OC(CO)C(O)C1O` (stereo not given), the GI50 in the assay with A549, with CCRF-CEM, with HCT-116, with HL-60, in the assay with HT-29 and in the assay on IGROV-1 was > 100 µM (inactive) in each case. Also, the GI50 in the assay with NCI-H522, with OVCAR-5, in the assay on SK-MEL-28, in the assay on SK-MEL-5, with SN12C and in the assay on SNB-75 was > 100 µM (inactive) in each case. Besides, the GI50 in the assay with U-251 is > 100 µM (inactive).
In the case of `N#C/C(=C/c1ccc([N+](=O)[O-])o1)c1ccccc1`, the GI50 in the assay with A549, in the assay with CCRF-CEM, in the assay on HCT-116, in the assay with HL-60, in the assay with HT-29 and in the assay on NCI-H522 was > 100 µM (inactive) each time. For the same compound, the GI50 with OVCAR-4 is > 100 µM (inactive); in the assay on OVCAR-5, > 100 µM (inactive); with SK-MEL-28, > 100 µM (inactive); in the assay with SK-MEL-5, > 100 µM (inactive); in the assay on SN12C, > 100 µM (inactive); in the assay on SNB-75 it was 97.7 µM (inactive). Moreover, in the assay on U-251, the GI50 is > 100 µM (inactive).
